# Patent publication US20100008898A1, “CHYMOTRYPSIN FROM LUCILIA SERICATA LARVAE AND ITS USE FOR THE TREATMENT OF WOUNDS” (priority 2006, published 2010)
# B1: Soybean Trypsin Inhibitor (protein, UniProt P01070 25-205, looked up)
# Trypsin inhibitor A: DFVLDNEGNPLENGGTYYILSDITAFGGIRAAPTGNERCPLTVVQSRNELDKGIGTIISSPYRIRFIAEGHPLSLKFDSFAVIMLCVGIPTEWSVVEDLPEGPAVKIGENKDAMDGWFRLERVSDDEFNNYKLVFCPQQAEDDKCGDIGISIDHDDGTRRLVVSKNKPLVVQFQKLDKESL
# Legend:
# ES = ES activity after incubation with proteinase inhibitors; design: species or system Lucilia sericata
# [1] = Chymotryptic activity, release of AMC from fluorescent peptide substrate; type: biochemical
# Procedure: (§1) FIG. 10 is two graphs showing the effect of ES, trypsin, chymotrypsin and trypsin/chymotrypsin mix upon fibroblast cell adhesion to a FN-coated surface, following 24 h incubation, in relation to each enzyme concentration's proteolytic activity. Such activity was assessed by monitoring the release of 7-amino-4-methylcoumarin (AMC) from synthetic peptide substrates for a. trypsin or b. chymotrypsin. Cell adhesion was measured using a firefly luciferase-based luminescent adenosine triphosphate (ATP) assay. Results were expressed as mean % cell adhesion of the control±1SD (n=3).
# (§2) Chymotryptic/tryptic activity was assessed by monitoring the release of 7-amino-4-methylcoumarin (AMC) from Suc-Ala-Ala-Pro-Phe-AMC (chymotryptic) and Tosyl-Gly-Pro-Arg-AMC (tryptic). 50 μl of each fraction was incubated with 150 μl of substrate (5 μM) diluted in PBS. Samples were incubated at 37° C. for 30 minutes after which the fluorescence was measured (excitation 365 nm, emission detection 465 nm) using a Dynex MFX microplate fluorimeter. Proteolytic activity is expressed as the number of fluorescence units emitted over 30 minutes following the deduction of a time zero reading.
# fibroblasts = test: Fibroblast adhesion to fibronectin-coated surface (ATP assay); type: cell-based; conditions: for cell adhesion: 1.6 μg/ml commercial trypsin
# Procedure: as §1
# The present inventors undertook a further experiment to compare the effect of the ES chymotrypsin with a commercially available bovine chymotrypsin. The effect of ES upon fibroblast adhesion to fibronectin was therefore compared with commercially available preparations of trypsin and chymotrypsin. This was achieved by seeding fibroblasts upon a fibronectin-coated surface in the presence of various concentrations of ES, commercial trypsin or commercial chymotrypsin. […] An adenosine triphosphate (ATP) assay was then applied in order to quantify the relative numbers of cells remaining upon the surface according to the concentration of ATP detected.
# [2] = Tryptic activity, release of AMC from fluorescent peptide substrate; type: biochemical; conditions: 1.6 μg/ml commercial trypsin vs 5 μg/ml ES
# Procedure: as §1, §2
# [3] = 0.1 μg/ml commercial chymotrypsin
# [4] = 0.2 μg/ml commercial chymotrypsin
molecule,measurement,setting,value
"N=C(N)c1ccc(CS(=O)(=O)F)cc1 [APMSF, 4-(amidinophenyl) methane sulphonyl fluoride]",tissue remodelling and regeneration properties of the ES after incubation with inhibitor,ES,not lost/inhibited
"O=S(=O)(F)Cc1ccccc1 [PMSF, phenyl methanesulphonyl fluoride]",tissue remodelling and regeneration properties of the ES after incubation with inhibitor,ES,lost or inhibited
chymotrypsin [commercial chymotrypsin],activity against chymotrypsin-specific substrate relative to ES,[1]; [3],94.1 % of the activity of 5 μg/ml ES
same,activity against chymotrypsin-specific substrate relative to ES,[1]; [4],204.9 % of the activity of 5 μg/ml ES
same,fibroblast adhesion,fibroblasts; [3],no ability to modify fibroblast adhesion
same,fibroblast adhesion,fibroblasts; [4],no effect upon fibroblast adhesion
trypsin [commercial trypsin],activity against trypsin-specific substrate relative to ES,[2],103.2 % of the activity of ES
same,cell adhesion,fibroblasts; 24 hours incubation,34.9 % of the control
same,cell adhesion,fibroblasts; 48 hours incubation,24.7 % of the control
B1,ability of ES to enhance fibroblast migration and degrade extra-cellular matrix proteins after incubation with inhibitor,ES,removes the ability of the ES to enhance fibroblast migration and its ability to degrade extra-cellular matrix proteins
